# Columns and labels:
# CCR4 = biological target: T1, CCR4 (Homo sapiens, UniProt P51679); assay: Chemokine receptor panel (assays similar to Example 1 and 2), CCR4; assay type: binding
# T1 sequence (P51679 1-360): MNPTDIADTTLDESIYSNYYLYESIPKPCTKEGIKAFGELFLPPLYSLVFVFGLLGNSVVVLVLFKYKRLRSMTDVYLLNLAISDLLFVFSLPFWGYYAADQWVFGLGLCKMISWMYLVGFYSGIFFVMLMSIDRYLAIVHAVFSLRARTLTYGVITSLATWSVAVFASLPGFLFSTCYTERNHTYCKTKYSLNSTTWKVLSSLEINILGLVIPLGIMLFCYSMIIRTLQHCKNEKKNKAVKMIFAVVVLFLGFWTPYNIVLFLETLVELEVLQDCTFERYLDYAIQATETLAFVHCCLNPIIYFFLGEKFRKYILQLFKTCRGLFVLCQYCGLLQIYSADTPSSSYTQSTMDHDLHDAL
# Protocol: (§1) Membranes (80 μL of 1×10^6 cell equivalents/mL) were then added, giving a total incubation volume of 100 μL per well. The plates were incubated for 2 hours at room temperature.
# (§2) HEK 293 transfectants were seeded at 5×10^4 cells per well in 96 well poly-D lysine coated black with clear bottom plates (Becton Dickinson) and cultured for 16 h at 37° C. with an atmosphere of 5% CO2/95% air to form confluent monolayers. The following day cells were loaded with 5 μM Flura 3 AM diluted in tyrodes solution (137 mM NaCl, 10 mM HEPES, 0.441 mM KH2PO4, 2.67 mM KCl, 1.8 mM CaCL2, 1 mM MgCl2) with 6.25 mM probenecid at pH7.4, 100 μl per well and incubated at 37° C. with an atmosphere of 5% CO2/95% air for 1 h. After which the loading media was removed and the cells washed twice with PBS/HEPES solution (100 μl per well) then overlayed with 50 μl assay buffer (tyrodes buffer without probenecid). 50 μl inhibitor compound or 50 μl 0.2% (v/v) DMSO carrier diluted in assay buffer was then added per well and incubated for 30 minutes at room temperature before the addition of 50 μl 3 mM Carbachol per well. Calcium flux responses were measured using a Fluorometric Imaging Plate Reader (Molecular Devices) for 3 minutes before the addition of either IL-8 (50 μl, 1×10^−7-3×10^−11 M final concentration) or GROalpha. […] Fluorescence readings were taken every 2 seconds for a total run time of 6 minutes.
# CCR1 = biological target: T2, CCR1 (Homo sapiens, UniProt P32246); assay: Chemokine receptor panel (assays similar to Example 1 and 2), CCR1; assay type: binding; conditions: CCR1, 10 uM
# T2 sequence (P32246 1-355): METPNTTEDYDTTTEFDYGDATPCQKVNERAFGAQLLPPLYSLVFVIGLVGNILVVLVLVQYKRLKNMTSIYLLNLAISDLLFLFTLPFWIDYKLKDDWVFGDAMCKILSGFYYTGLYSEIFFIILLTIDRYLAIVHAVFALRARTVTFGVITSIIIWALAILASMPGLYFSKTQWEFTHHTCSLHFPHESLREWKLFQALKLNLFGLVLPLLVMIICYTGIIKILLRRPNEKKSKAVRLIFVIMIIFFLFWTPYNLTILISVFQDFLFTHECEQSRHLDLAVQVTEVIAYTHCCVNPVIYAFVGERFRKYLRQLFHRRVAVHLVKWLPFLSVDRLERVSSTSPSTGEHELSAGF
# CXCR2 [1] = biological target: T3, CXCR2 (Homo sapiens, UniProt P25025); assay: HEK FLIPR intracellular calcium assay, wild type CXCR2; assay type: cell-based; conditions: Compound A 30 nM (10 nM and 30 nM in Example 5), Compound B 100 nM
# T3 construct: expressed in transfected cells
# T3 sequence (P25025 1-360): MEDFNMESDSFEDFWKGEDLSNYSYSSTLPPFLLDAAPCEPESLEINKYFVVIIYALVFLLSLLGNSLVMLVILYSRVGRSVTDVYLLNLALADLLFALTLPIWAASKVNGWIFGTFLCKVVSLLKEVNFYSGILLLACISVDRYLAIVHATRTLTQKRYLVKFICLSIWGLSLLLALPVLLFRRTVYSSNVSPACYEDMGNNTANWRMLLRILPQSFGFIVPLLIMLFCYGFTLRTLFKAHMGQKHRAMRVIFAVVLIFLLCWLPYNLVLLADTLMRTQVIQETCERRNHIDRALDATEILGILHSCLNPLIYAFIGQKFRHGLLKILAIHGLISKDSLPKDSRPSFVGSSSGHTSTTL
# Protocol: HEK cells, transfected with the human recombinant CXCR2 receptor, were grown to approximately 80% confluence in 225 cm^2 flasks in DMEM-Glutamax medium containing, non-essential amino acids, 10% (v/v) FCS in a humidified incubator at 37° C., 5% CO2. Cells were harvested from the flask using 10× trypsin at 37° C. for 1 to 2 minutes.
# (§3) All points were reproduced in triplicate on each plate.
# CCR5 = CCR5 (Homo sapiens, UniProt P51681); assay: Chemokine receptor panel (assays similar to Example 1 and 2), CCR5; assay type: binding; conditions: CCR5, 10 uM
# Sequence of CCR5 (P51681 whole entry): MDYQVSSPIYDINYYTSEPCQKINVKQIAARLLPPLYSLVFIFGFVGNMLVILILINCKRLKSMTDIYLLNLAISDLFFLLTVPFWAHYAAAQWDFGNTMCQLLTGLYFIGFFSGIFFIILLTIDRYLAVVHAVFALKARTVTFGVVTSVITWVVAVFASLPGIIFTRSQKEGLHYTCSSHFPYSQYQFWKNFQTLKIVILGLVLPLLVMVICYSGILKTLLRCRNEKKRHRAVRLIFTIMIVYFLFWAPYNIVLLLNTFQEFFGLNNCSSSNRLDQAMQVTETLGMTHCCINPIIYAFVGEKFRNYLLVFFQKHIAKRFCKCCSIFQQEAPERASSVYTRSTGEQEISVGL
# Protocol: as §1, §2
# CXCR1 = biological target: T4, CXCR1 (Homo sapiens, UniProt P25024); assay: Chemokine receptor panel (assays similar to Example 1 and 2), CXCR1; assay type: binding
# T4 sequence (P25024 1-350): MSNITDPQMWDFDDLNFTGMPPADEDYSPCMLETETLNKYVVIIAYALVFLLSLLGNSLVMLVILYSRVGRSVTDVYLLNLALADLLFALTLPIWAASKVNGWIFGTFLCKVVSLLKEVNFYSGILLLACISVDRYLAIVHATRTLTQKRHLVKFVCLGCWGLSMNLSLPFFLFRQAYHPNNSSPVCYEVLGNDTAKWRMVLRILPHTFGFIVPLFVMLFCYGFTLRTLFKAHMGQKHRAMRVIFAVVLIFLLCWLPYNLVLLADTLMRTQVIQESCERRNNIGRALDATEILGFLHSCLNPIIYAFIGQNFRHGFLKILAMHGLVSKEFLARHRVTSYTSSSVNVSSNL
# From the text: as §3
# [2] = biological target: T5, GST-CXCR2 fusion protein (human CXCR2 residues G318 to L360) (Homo sapiens, UniProt P25025); assay: [3H]Compound A radioligand binding to GST-CXCR2 C terminal tail; conditions: 20 nM [3H]Compound A, FIG. 21, average of three experiments
# T5 construct: made in house; host or cells: E. coli
# T5 sequence (P25025 with tags, fused parts or gaps): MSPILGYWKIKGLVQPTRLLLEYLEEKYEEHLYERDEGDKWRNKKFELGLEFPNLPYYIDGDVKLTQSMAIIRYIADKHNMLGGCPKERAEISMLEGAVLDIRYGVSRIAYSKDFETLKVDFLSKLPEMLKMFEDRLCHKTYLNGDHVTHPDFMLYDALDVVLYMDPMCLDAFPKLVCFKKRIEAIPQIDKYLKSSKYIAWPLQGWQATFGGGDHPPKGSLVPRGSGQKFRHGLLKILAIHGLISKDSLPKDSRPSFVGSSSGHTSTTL
# Protocol: An expression construct which encodes for S. Japonicum glutathione-S-transferase (GST) fused to the last 43 amino acids of human CXCR2 (residues G318 to L360) was generated by standard molecular biological techniques.
# The protein was expressed in E. coli and the resulting fusion protein was purified from the cell extract via chromatography using a 5 ml GSTrap column (Amersham) which binds GST containing proteins, and eluted using 10 mM reduced glutathione in the elution buffer. At the same time GST without a CXCR2 C-terminal tail was also expressed and purified as a control. Both proteins had the excess 10 mM glutathione removed using a XK26/10 desalting column (Amersham).
# Protein solutions (50 μL dilutions starting at 1.28 mg/ml) of either GST-CXCR2 fusion or wild type GST were then added, giving a total incubation volume of 200 μL per well.
# A GF-B filter plate was set up containing 50 μl of 1 mg/ml gelatine in PBS in each well, which was then filtered through the plate and discarded. […] After filtering, 100 μl filtrate was transferred to a lumaplate and dried down in a 50° C. oven overnight and then counted on the TopCount instrument (Packard BioScience)
# wild type GST = biological target: T6, wild type GST (Schistosoma japonicum, UniProt P08515); assay: [3H]Compound A radioligand binding to wild type GST control; conditions: 20 nM [3H]Compound A; FIG. 21, average of three experiments
# T6 construct: made in house; host or cells: E. coli
# T6 sequence (P08515 whole entry): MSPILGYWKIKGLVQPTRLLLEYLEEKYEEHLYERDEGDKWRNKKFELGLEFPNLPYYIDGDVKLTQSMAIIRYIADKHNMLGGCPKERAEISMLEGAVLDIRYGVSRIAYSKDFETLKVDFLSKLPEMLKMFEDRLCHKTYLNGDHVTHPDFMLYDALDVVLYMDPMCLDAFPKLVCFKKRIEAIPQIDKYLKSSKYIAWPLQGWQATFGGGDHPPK
# Protocol: Protein solutions (50 μL dilutions starting at 1.28 mg/ml) of either GST-CXCR2 fusion or wild type GST were then added, giving a total incubation volume of 200 μL per well. The plates were incubated for 2 hours at room temperature.
# A GF-B filter plate was set up containing 50 μl of 1 mg/ml gelatine in PBS in each well, which was then filtered through the plate and discarded. 100 μl filter mix (160 mg/ml charcoal (dextran coated) in PBS containing 1 mg/ml gelatine) was then filtered through the plate and then 150 μl assay mix was then filtered through the prepared filter plate (The charcoal catches the excess un-bound compound). After filtering, 100 μl filtrate was transferred to a lumaplate and dried down in a 50° C. oven overnight and then counted on the TopCount instrument (Packard BioScience)
# CX3CR1 = biological target: T7, CX3CR1 (Homo sapiens, UniProt P49238); assay: biochemical
# T7 sequence (P49238 1-355): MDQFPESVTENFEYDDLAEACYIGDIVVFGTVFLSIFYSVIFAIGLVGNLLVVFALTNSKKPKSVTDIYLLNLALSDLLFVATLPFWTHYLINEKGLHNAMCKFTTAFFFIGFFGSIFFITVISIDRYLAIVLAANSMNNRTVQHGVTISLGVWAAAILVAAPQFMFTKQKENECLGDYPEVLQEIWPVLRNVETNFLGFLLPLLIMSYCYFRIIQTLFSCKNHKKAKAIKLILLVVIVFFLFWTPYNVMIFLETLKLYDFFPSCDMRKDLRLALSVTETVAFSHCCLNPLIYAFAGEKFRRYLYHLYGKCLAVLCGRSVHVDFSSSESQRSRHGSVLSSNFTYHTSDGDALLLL
# CCR2b = biological target: T8, CCR2b (Homo sapiens, UniProt P41597); assay: Chemokine receptor panel (assays similar to Example 1 and 2), CCR2b; assay type: binding
# T8 sequence (P41597 1-360 isoform P41597-2): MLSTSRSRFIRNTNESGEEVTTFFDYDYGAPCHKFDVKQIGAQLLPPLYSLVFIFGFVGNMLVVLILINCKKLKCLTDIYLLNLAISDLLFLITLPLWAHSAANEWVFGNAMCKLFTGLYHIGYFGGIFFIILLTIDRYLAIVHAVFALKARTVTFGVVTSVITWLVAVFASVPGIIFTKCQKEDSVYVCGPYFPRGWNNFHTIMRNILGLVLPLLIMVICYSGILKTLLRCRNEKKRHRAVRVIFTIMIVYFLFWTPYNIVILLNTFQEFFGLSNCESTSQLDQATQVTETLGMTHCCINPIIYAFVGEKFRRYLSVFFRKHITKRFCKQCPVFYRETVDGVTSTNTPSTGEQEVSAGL
# [3] = biological target: T9, human Chemokine receptor CXCR2 (Homo sapiens, UniProt P25025); assay: CXCR2 membrane [125I]IL-8 radioligand binding assay; conditions: FIG. 2
# T9 construct: expressed in transfected cells
# T9 sequence (P25025 1-360): T3 sequence (P25025 1-360)
# Protocol: HEK 293 cells were transfected with CXCR2 receptor using the lipofection reagent Fugene 6 (Roche). […] Stable HEK-CXCR2 transfectants were grown to approximately 80% confluence in 10-layer cell factories in DMEM medium containing 10% (v/v) foetal calf serum and glutamine (2 mM) in a humidified incubator at 37° C., 5% CO2. Cells were harvested from the flask using Accutase at 37° C. for 3 to 5 minutes.
# Cells were resuspended on ice in 60 mL hypotonic buffer at a density of 2×10^7 cells/mL. Membranes were prepared on ice by homogenisaton using a polytron tissue homogenizer set at 22000 rpm. The membrane preparation was purified by sucrose gradient centrifugation. In each of 4 centrifuge tubes 15 mL of cell membranes was layered onto 10 mL 41% (w/v) sucrose solution and the tubes centrifuged at 140000 g for 1 hour at 4° C. […]
# Following incubation, the plate containing the assay mixture was filter-washed with 200 μL cold HEPES-buffered salt solution using a Millipore vacuum manifold. The filtration plate was allowed to air dry then either the individual filters were punched out into polypropylene test tubes and the radioactivity measured by direct gamma counting using a Cobra II Gamma counter (Packard BioScience) for 1 minute per sample or alternatively, the whole filtration plate was placed in a carrier plate and 50 μL of MicroScint-O added to each well. […]
# CXCR2 [4] = biological target: T3, CXCR2; assay: [3H]-Compound C binding assay on CXCR2 membranes; conditions: 20 nM [3H]Compound C, FIG. 3
# Protocol: Following incubation, the plate containing the assay mixture was transferred to GF-B plates and filter-washed with cold HEPES-buffered salt solution using a Tomtec harvester. The filtration plate was allowed to air dry then 20 μl of MicroScint-0 added to each well. 96-well plate scintillation counting was performed using a TopCount instrument (Packard BioScience) for 1 minute per sample well.
molecule,measurement,setting,value
C[C@H](CO)Nc1nc(SCc2cccc(Cl)c2F)nc2[nH]c(=O)sc12 [Compound A],IC50,CCR4,7.94 µM
same,inhibition at 10 µM,CCR1,62%
same,activity (inhibition of IL-8-induced calcium release),CXCR2 [1],active against CXCR2
same,inhibition at 10 µM,CCR5,72%
same,IC50,CXCR1,251 nM
same,radiolabelled binding to GST-CXCR2 fusion protein on addition of excess cold compound,[2],decrease in radiolabelled binding
same,compound binding to wild type GST control protein,wild type GST,minimal compound binding
same,IC50,CX3CR1,251 nM
same,IC50,CCR2b,158 nM
"IL-8: C-X-C chemokine, endogenous CXCR2/CXCR1 agonist ligand; non-radioactive IL-8 used as competitor",inhibition of [125I]-IL-8 binding,[3],able to inhibit the binding
NS(=O)(=O)c1c(Cl)ccc(NC(=O)Nc2cccc(Cl)c2Cl)c1O [Compound B],activity (inhibition of IL-8-induced calcium release),CXCR2 [1],active against CXCR2
C[C@H](CO)Nc1nc(SCc2ccccc2)nc2nc(N)sc12 [Compound C],binding to CXCR2 / displacement of radio-labelled Compound C,CXCR2 [4],can bind to CXCR2
same,inhibition of [125I]-IL-8 binding,[3],able to inhibit the binding

# — patent US20090305321A1, “Assays for Allosteric Modulators of G-Protein Coupled Receptors (GPCRs)” (ASTRAZENECA AB, priority 2005, published 2009)
